Our source for the IC50 values is ChEMBL document CHEMBL1153395, “Development of a novel virtual screening cascade protocol to identify potential trypanothione reductase inhibitors” (J Med Chem, 2009).

Assay [1] deals with Trypanothione reductase (Trypanosoma cruzi, UniProt P28593). As to the kind of experiment: Inhibition of Trypanosoma cruzi Trypanothione reductase.
Assay [2] concerns the target Trypanothione reductase (Trypanosoma brucei brucei, UniProt P39051). Kind of assay: Inhibition of Trypanosoma brucei Trypanothione reductase.

A value given as a limit tells only on which side of the number the result lay.

Chain of Trypanothione reductase (Trypanosoma brucei brucei, UniProt P39051) (P39051 whole entry): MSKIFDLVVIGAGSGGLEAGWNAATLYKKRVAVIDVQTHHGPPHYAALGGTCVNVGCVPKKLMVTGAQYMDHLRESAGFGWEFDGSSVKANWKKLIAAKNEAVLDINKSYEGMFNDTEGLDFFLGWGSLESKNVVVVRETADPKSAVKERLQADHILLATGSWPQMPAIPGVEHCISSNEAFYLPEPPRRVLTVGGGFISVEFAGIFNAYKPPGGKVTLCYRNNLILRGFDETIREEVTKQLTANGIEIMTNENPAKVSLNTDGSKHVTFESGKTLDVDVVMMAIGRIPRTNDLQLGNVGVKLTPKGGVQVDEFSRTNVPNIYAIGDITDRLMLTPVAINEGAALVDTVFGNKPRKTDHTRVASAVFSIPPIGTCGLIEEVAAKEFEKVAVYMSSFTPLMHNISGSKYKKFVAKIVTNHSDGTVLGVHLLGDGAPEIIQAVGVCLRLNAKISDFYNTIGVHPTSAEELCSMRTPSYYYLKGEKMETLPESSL
Chain of Trypanothione reductase (Trypanosoma cruzi, UniProt P28593) (P28593 whole entry): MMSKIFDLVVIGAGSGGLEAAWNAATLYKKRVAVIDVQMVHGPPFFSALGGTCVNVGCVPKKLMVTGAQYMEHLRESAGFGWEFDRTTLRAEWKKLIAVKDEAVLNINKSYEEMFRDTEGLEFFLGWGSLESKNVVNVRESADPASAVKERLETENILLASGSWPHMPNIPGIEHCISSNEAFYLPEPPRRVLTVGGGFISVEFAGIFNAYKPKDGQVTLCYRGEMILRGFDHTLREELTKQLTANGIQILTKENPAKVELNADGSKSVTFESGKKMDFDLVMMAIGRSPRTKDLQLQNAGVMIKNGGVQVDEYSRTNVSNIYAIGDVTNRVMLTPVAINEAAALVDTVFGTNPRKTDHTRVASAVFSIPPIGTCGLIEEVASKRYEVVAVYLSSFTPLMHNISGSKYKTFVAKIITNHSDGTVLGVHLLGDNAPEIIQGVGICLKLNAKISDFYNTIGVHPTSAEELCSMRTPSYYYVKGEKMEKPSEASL

As a reminder, the IC50 is the concentration needed to halve the response being measured. Turning to `NCCCCC(N)C(=O)Nc1ccc2ccccc2c1` (configuration not stated), the IC50 in assay [1] and in assay [2] was above 100 µM throughout. `CC12CN3CC(C)(C1)C[N+](Cc1cccc(Br)c1)(C3)C2`: the IC50 in assay [1] and in assay [2] was above 100 µM in each case.

On to `O=C(CN1C(=O)C2CC=CCC2C1=O)Nc1ccccc1Sc1ccc(Cl)cc1` (configuration not stated), for which the IC50 in assay [1] and in assay [2] was above 100 µM each time.

As to `Cc1ccc(N2CC(C(=O)Nc3ccccc3Sc3ccccc3)CC2=O)cc1` (configuration not stated), the IC50 in assay [1] and in assay [2] was above 100 µM in each case. `C[N+]1(C)CCCC2c3ccccc3Sc3ccc(Cl)cc3C21` (configuration not stated): the IC50 in assay [1] was 75.3 µM; in assay [2], 58.7 µM.

On to `C[N+]1(Cc2ccccc2)CCC(/N=C/C2C(=O)NC(=O)N(C3CCCCC3)C2=O)CC1` (configuration not stated), for which the IC50 in assay [1] is 45.2 µM; in assay [2], above 100 µM. Consider `O=C(CN1C(=O)NC2(CCCCCC2)C1=O)Nc1ccccc1Sc1ccccc1`, for which the IC50 in assay [1] and in assay [2] was above 100 µM throughout.

In assay [2], `CC1CCCCC12NC(=O)N(CC(=O)Nc1ccccc1Sc1ccccc1)C2=O` (configuration not stated) came in with an IC50 above 100 µM.

Take `CC(NS(=O)(=O)c1ccccc1)C(=O)Nc1ccccc1Sc1ccccc1` (configuration not stated): the half-inhibitory concentration (IC50) in assay [1] and in assay [2] was above 100 µM throughout. With `CN(CC(=O)Nc1ccccc1Sc1ccccc1)C1CCCCC1`, the IC50 worked out at 56.3 µM in assay [1] and 46.9 µM in assay [2]. On the same counts, the results for `CCN1CCN(C2Cc3ccccc3Sc3ccc(Cl)cc32)CC1` (configuration not stated) are 29.1 µM and 36 µM. On the same counts, the results for `O=C(CCN1CCN2CCCCC2C1)N1c2ccccc2Sc2ccc(Cl)cc21` (configuration not stated) are 35.4 µM and 31.9 µM. On the same counts, the results for `O=C(CN1CCN(c2ccccc2)CC1)Nc1ccccc1Sc1ccccc1` are above 100 µM and above 100 µM.

As for `CN1CCN(C2=NC(=O)CC(C(=O)Nc3cccc(Cl)c3)N2)CC1` (configuration not stated), the IC50 in assay [1] and in assay [2] was above 100 µM in each case.

`CN(C)CCCC1Sc2ccccc2Sc2ccccc21` (configuration not stated): the IC50 in assay [1] is 36.7 µM; in assay [2], 37.3 µM. As for `CN1CCCC(CC2Oc3ccccc3Sc3ccccc32)C1` (configuration not stated), the IC50 in assay [1] turned out to be 11.5 µM; in assay [2], 14.6 µM.

Turning to `NC(=O)C1(N2CCCCC2)CCN(CC(=O)Nc2ccccc2Sc2ccccc2)CC1`, the 50% inhibitory concentration (IC50) in assay [1] and in assay [2] was above 100 µM throughout. Consider `O=C(CN1CCCCCC1)N1c2ccccc2Sc2ccc(Cl)cc21`, for which the IC50 in assay [1] was 78.7 µM; in assay [2] it was above 100 µM. As to `c1ccc2c(c1)Sc1ccccc1N2CC1CN2CCC1CC2` (configuration not stated) [MEQUITAZINE], the figures for the IC50 in assay [1] and in assay [2] were 21.8 µM and 54.3 µM, respectively.
